According to patent US8557222B2, “Radiopharmaceutical imaging of neurodegenerative diseases” (priority 2008, dated 2013):

Experiments:
β-amyloid plaque = assay: PET imaging of β-amyloid plaque with ^18F-AV-45 (fused/simulated dual radiopharmaceutical images); format: in vivo, human; details: imaged between 70 and 80 minutes, simulated fused image
Protocol: (§1) Data was generated from the radiopharmaceutical imaging of β-amyloid plaque and nigrostriatal dopaminergic degeneration utilizing dual radiopharmaceuticals. The radiopharmaceuticals utilized included ^18F-AV-45, which targets β-amyloid plaque and ^18F-AV-133, which targets nigrostriatal neurons. The radiopharmaceuticals were administered via intravenous injection to subjects who were clinically diagnosed with Parkinson's Disease (PD) or Alzheimer's Disease (AD).
(§2) Data was analyzed for PD patients (PD_AV133) and Healthy Controls (HC_AV133) as well as for AD patients (AD_AV45) and Healthy Controls (HC_AV45). Data and images derived from subjects in each category were analyzed individually. Data and images from an average of 4 subjects in each respective category was also analyzed and used as the basis of this protocol. The optimal imaging protocol was judged based on the following criteria: clarity of images/data in the cortical, grey, and white volumes of interest (VOIs) of the brain (relating to diagnosis of AD) and the striatal VOIs of the brain (relating to diagnosis of PD/DLB); ease and level of certainty of the individual diagnoses of the presence or absence of AD, PD, and DLB; minimum level of radiation injected into a patient; and minimum protocol completion time.
(§3) FIGS. 1, 4, 7 and 10 were created by the fusion of two separate image data sets, one from a PET scan of an ^18F amyloid plaque-binding radiopharmaceutical (^18F-AV-45) and one from a PET scan of an ^18F VMAT2 targeted radiopharmaceutical (^18F-AV-133). FIG. 1 is a simulated image of the brain of a healthy individual with no observable amyloid plaques and normal dopaminergic neurons (imaged between 70 and 80 minutes). […] This image pattern is consistent with a pure AD diagnosis, with no evidence of loss of striatal neurons (which would be observed if PD or DLB were also present). […] This image pattern is consistent with a pure PD diagnosis, without evidence of AD amyloid plaque pathology.
(§4) The Statistical Parametric Mapping (SPM2) application in MATLAB® (Version 7.3 R2006b, MathWorks, Inc.) was used to align the raw images and create a mean image from the image set. The mean image was normalized to a SPECT template, although in other experiments, other templates were used. Using the image viewer application in MRICro, the normalized mean image was compared with the template image to confirm that the two images align. […] Standardized uptake values (SUVs) were calculated from the counts extracted from the images. […]
(§5) The cortical regions are where amyloid plaques are found in the brain using the ^18F-AV-45 radiopharmaceutical, while the striatal regions contain dopaminergic neurons detected with the ^18F-AV-133 radiopharmaceutical. […]

[1] = Brain washout of first radiopharmaceutical in the dual imaging protocol; format: in vivo, human; details: 10 mCi intravenous; at second acquisition, 30 minutes after ^18F-AV-133 given about 50 minutes after start of protocol
From the text: The cortical regions are where amyloid plaques are found in the brain using the ^18F-AV-45 radiopharmaceutical, while the striatal regions contain dopaminergic neurons detected with the ^18F-AV-133 radiopharmaceutical. […] FIGS. 5 and 6 show simulated activity curves for cortical and striatal regions of the brain, respectively, for an individual with AD. FIGS. 8 and 9 show simulated activity curves for cortical and striatal regions of the brain, respectively, of an individual with PD while FIGS. 11 and 12 show simulated activity curves for cortical and striatal regions of the brain, respectively, of an individual with AD and PD. […] Whenever the two radiopharmaceuticals were considered as being simultaneously present in the brain, the SUVs from both radiopharmaceuticals for each region were summed together, and the summed SUVs were plotted. This allowed for the simulation/prediction of the interaction and possible interference of activity of one radiopharmaceutical with the other when both are present in the brain during the imaging of the subject.
Through analyzing and experimenting with the plots and images described above, a protocol for the simultaneous imaging of AD plaques and dopaminergic neuronal degeneration was created. […] The total protocol time was about 80 to 90 minutes. […]

VMAT2 = target: T1, VMAT2 (Homo sapiens, UniProt Q05940); assay: PET imaging of nigrostriatal dopaminergic neurons with ^18F-AV-133 (fused/simulated dual radiopharmaceutical images); format: in vivo; details: imaged between 70 and 80 minutes, simulated fused image
T1 construct: from tissue; host or cells: brain (striatal regions, dopaminergic neurons) of living human subjects, in vivo PET
T1 sequence (Q05940 whole entry, the tested form may be a part): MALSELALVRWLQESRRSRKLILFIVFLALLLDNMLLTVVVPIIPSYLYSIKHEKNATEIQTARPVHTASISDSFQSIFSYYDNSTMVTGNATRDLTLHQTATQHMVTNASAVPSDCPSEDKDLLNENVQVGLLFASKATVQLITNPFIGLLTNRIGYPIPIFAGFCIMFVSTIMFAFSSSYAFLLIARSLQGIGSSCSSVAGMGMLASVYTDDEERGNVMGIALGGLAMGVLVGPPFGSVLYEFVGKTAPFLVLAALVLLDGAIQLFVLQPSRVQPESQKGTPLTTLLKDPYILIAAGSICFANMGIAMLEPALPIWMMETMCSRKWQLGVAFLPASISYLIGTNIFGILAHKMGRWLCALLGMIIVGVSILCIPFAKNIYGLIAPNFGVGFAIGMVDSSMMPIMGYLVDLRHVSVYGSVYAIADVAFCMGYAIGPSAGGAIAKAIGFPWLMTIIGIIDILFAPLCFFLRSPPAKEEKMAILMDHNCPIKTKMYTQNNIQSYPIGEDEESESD
Protocol: as §1, §2, §3, §4, §5

[2] = FIG. 4, individual with clinical signs of AD
[3] = FIG. 7, individual exhibiting symptoms of PD
[4] = FIG. 10, individual with both AD and PD

| SMILES | cortical brain signal from ^18F-AV-45 (β-amyloid plaque; FIG. 1, healthy individual) | ^18F-AV-45 radiopharmaceutical signal (amyloid plaque deposits) (β-amyloid plaque; [2]) | amyloid signal in the cortical brain regions from ^18F-AV-45 (β-amyloid plaque; [3]) | ^18F-AV-45 retention (amyloid plaques) (β-amyloid plaque; [4]) | washout and radioactive decay of ^18F-AV-45 from brain [1] | signal in the nigrostriatal region from ^18F-AV-133 (VMAT2; FIG. 1, healthy individual) | uptake of ^18F-AV-133 in the nigrostriatal region of the brain (VMAT2; [2]) | intensity of ^18F-AV-133 in the striatal regions (VMAT2; [3]) | uptake of AV-133 in the striatal regions (VMAT2; [4]) |
| --- | --- | --- | --- | --- | --- | --- | --- | --- | --- |
| CNc1ccc(/C=C/c2ccc(OCCOCCOCC[18F])nc2)cc1 [^18F-AV-45, (E)-4-(2-(6-(2-(2-(2-[^18F]fluoroethoxy)ethoxy)ethoxy)pyridin-3-yl)vinyl)-N-methylbenzenamine] | no appreciable cortical brain signal | Amyloid plaque deposits are visible in the frontal region of the brain | does not show evidence of amyloid signal in the cortical brain regions | retention in cortical brain | essentially complete |  |  |  |  |
| COc1cc2c(cc1OCCC[18F])CCN1C[C@@H](CC(C)C)[C@H](O)C[C@H]21 [^18F-AV-133, (2R,3R,11bR)-9-(3-[18F]fluoropropoxy)-3-isobutyl-10-methoxy-2,3,4,6,7,11b-hexahydro-1H pyrido[2,1a]isoquinolin-2-ol] |  |  |  |  |  | strong signal in the nigrostriatal region | normal uptake | lack of intensity in the striatal regions | diminished uptake |
